Paper PMC3836680 (Amino acids, 2011)

Target: S. pyogenes P5C reductase (Streptococcus pyogenes, UniProt Q9A1S9)
Test: P5C reductase inhibition assay
Assay type: biochemical
Conditions: read-out: Enzyme inhibition at 0.2 mM

NC(P(=O)(O)O)P(=O)(O)O [Compound 01, aminomethylenebisphosphonic acid]
inhibition at 200 µM: 3 ± 2.1%
